Molecular target: T1, cAMP and cAMP-inhibited cGMP 3',5'-cyclic phosphodiesterase 10A (Rattus norvegicus, UniProt Q9QYJ6)
T1 sequence (Q9QYJ6 whole entry): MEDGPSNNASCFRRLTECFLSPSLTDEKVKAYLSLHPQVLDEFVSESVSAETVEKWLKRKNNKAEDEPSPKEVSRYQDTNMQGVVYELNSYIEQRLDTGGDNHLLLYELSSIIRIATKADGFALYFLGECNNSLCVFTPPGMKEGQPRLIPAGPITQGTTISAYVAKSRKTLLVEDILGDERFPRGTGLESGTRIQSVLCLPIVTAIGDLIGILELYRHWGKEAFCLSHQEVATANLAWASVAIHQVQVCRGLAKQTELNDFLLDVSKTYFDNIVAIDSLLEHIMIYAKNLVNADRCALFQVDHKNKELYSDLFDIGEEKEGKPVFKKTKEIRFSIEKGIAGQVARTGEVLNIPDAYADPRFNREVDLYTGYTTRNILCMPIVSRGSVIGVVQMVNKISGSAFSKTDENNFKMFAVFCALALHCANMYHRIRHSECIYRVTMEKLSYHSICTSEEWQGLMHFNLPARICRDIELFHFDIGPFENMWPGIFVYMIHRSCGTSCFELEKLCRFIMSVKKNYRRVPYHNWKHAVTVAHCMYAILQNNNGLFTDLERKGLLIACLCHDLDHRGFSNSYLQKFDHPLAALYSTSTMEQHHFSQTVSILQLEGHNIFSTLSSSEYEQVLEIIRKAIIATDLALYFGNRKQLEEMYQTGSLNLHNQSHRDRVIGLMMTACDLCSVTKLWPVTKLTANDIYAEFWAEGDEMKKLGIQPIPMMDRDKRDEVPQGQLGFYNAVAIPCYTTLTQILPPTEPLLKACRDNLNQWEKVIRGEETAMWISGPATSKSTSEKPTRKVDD
Test: Enzyme Inhibition Assay: Enzyme activity: An IMAP TR-FRET assay was used to analyze the enzyme activity (Molecular Devices Corp., Sunnyvale, Calif).

IC50 | Structure (SMILES)
384 nM | c1cnc(O[C@@H]2CCN(c3ccc4ccccc4n3)C2)c(C2CCOCC2)c1
1830 nM | c1cnc(O[C@@H]2CCN(c3cc4ccccc4cn3)C2)c(C2CCOCC2)c1
3590 nM | c1cnc(O[C@@H]2CCN(c3nc4ccccc4[nH]3)C2)c(C2CCOCC2)c1
1360 nM | c1ccc2cc(N3CC[C@H](Oc4nccnc4C4CCOCC4)C3)ncc2c1
346 nM | CC(=O)N1CC=C(c2cccnc2OC2CN(c3nc4ccccc4s3)C2)CC1
690 nM | CC(=O)N1CCC(c2nccnc2OC2CN(c3nc4ccccc4[nH]3)C2)CC1
1400 nM | O=[N+]([O-])c1ccc(N2CCC(Oc3ncccc3C3CCOCC3)CC2)nc1
1170 nM | OCc1ccc(N2CCC(Oc3ncccc3C3CCOCC3)CC2)nc1
1480 nM | O=Cc1ccc(N2CCC(Oc3ncccc3C3CCOCC3)CC2)nc1
2960 nM | Fc1ccc(N2CCC(Oc3ncccc3C3CCOCC3)CC2)nc1
2200 nM | FC(F)(F)c1ccc(N2CCC(Oc3ncccc3C3CCOCC3)CC2)nc1
384 nM | CC(=O)c1ccc(N2CCC(Oc3ncccc3C3CCOCC3)CC2)nc1
266 nM | Cc1ccc2ccc(N3CCC(Oc4ncccc4C4CCOCC4)CC3)nc2c1
198 nM | COC(=O)c1ccc(N2CCC(Oc3ncccc3C3CCOCC3)CC2)nc1
7840 nM | Cc1cccc2ccc(N3CCC(Oc4nccnc4C4CCOCC4)CC3)nc12
125 nM | Cc1cc(N2CCC(Oc3nccnc3C3CCOCC3)CC2)nc2ccccc12
276 nM | Cc1ccc2nc(N3CCC(Oc4nccnc4C4CCOCC4)CC3)ccc2c1
472 nM | Cc1ccc2nc(N3CCC(Oc4ncccc4C4CCOCC4)CC3)ccc2c1

IC50 | Structure (SMILES)
2850 nM | CC(=O)N1CCC(c2nccnc2OC2CCN(c3ccccn3)CC2)CC1
1050 nM | CC(=O)N1CCC(c2nccnc2OC2CCN(c3cccc(C)n3)CC2)CC1
1620 nM | CC(=O)N1CCC(c2nccnc2OC2CCN(c3ccc(C)cn3)CC2)CC1
997 nM | CC(=O)N1CCC(c2nccnc2OC2CCN(c3cc(C)ccn3)CC2)CC1
235 nM | CC(=O)N1CCC(c2nccnc2OC2CCN(c3cccc(Cl)n3)CC2)CC1
821 nM | CC(=O)N1CCC(c2nccnc2OC2CCN(c3ccc(Cl)cn3)CC2)CC1
96 nM | CC(=O)N1CCC(c2nccnc2OC2CCN(c3cc(Cl)ccn3)CC2)CC1
1080 nM | CC(=O)N1CCC(c2cccnc2OC2CCN(c3ccccn3)CC2)CC1
1180 nM | CC(=O)N1CCC(c2cccnc2OC2CCN(c3cccc(C)n3)CC2)CC1
1170 nM | CC(=O)N1CCC(c2cccnc2OC2CCN(c3ccc(C)cn3)CC2)CC1
1770 nM | CC(=O)N1CCC(c2cccnc2OC2CCN(c3cc(C)ccn3)CC2)CC1
1490 nM | CC(=O)N1CCC(c2cccnc2OC2CCN(c3ncccc3C)CC2)CC1
558 nM | CC(=O)N1CCC(c2cccnc2OC2CCN(c3cccc(Cl)n3)CC2)CC1
1200 nM | CC(=O)N1CCC(c2cccnc2OC2CCN(c3ccc(Cl)cn3)CC2)CC1
3580 nM | CC(=O)N1CCC(c2cccnc2OC2CCN(c3ncccc3Cl)CC2)CC1
51.1 nM | O=C(OCc1ccccc1)N1CCC(c2nc3ccccc3nc2OC2CN(c3ccc4ccccc4n3)C2)CC1
115 nM | CC(C)(C)OC(=O)N1CCC(c2nc3ccccc3nc2OC2CN(c3ccc4ccccc4n3)C2)CC1

Structure (SMILES) | IC50
CC(=O)N1CCC(c2nccnc2OC2CN(c3ccc4ccccc4n3)C2)CC1 | 8.39 nM
c1cnc(O[C@@H]2CCN(c3nccc4ccccc34)C2)c(C2CCOCC2)c1 | 981 nM
c1ccc2nc(N3CC[C@H](Oc4nccnc4C4CCOCC4)C3)ccc2c1 | 447 nM
c1ccc2c(N3CC[C@H](Oc4nccnc4C4CCOCC4)C3)nccc2c1 | 819 nM
c1ccc2nc(N3CC[C@@H](Oc4nccnc4C4CCOCC4)C3)ccc2c1 | 109 nM
c1ccc2c(N3CC[C@@H](Oc4nccnc4C4CCOCC4)C3)nccc2c1 | 4430 nM
c1ccc2[nH]c(N3CC[C@@H](Oc4nccnc4C4CCOCC4)C3)nc2c1 | 306 nM
CC(=O)N1CC=C(c2nccnc2OC2CN(c3nc4ccccc4s3)C2)CC1 | 63.1 nM
Nc1ccc(N2CCC(Oc3ncccc3C3CCOCC3)CC2)nc1 | 1700 nM
Clc1ccc(N2CCC(Oc3ncccc3C3CCOCC3)CC2)nc1 | 1410 nM
Brc1ccc(N2CCC(Oc3ncccc3C3CCOCC3)CC2)nc1 | 138 nM
N#Cc1ccc(N2CCC(Oc3ncccc3C3CCOCC3)CC2)nc1 | 828 nM
Cc1ccc2ccc(N3CCC(Oc4nccnc4C4CCOCC4)CC3)nc2c1 | 515 nM
c1ccc2[nH]c(N3CC[C@H](Oc4nccnc4C4CCOCC4)C3)nc2c1 | 3930 nM
Cc1cc(N2CCC(Oc3ncccc3C3CCOCC3)CC2)nc2ccccc12 | 101 nM
Brc1cccnc1OC1CN(c2ccncn2)C1 | 57700 nM
Brc1cccnc1OC1CN(c2cccnn2)C1 | 25.3 nM
CC(=O)N1CCC(c2nccnc2OC2CCN(c3ncccc3C)CC2)CC1 | 3010 nM
CC(=O)N1CCC(c2nccnc2OC2CCN(c3ncccc3Cl)CC2)CC1 | 1440 nM

— ChEMBL document CHEMBL3639166, “Heteroaryloxyheterocyclyl compounds as PDE10 inhibitors” (2013)
